Consider five molecules from EP0983768A1, “MEDICINAL COMPOSITION FOR PREVENTION OR TREATMENT OF HEPATOPATHY” (Nippon Shinyaku Co., Ltd., priority 1997, dated 1998).

Data set [1] has as its system concanavalin A-induced hepatic damage in mice. The data set is described as follows: Inhibitory effect on concanavalin A-induced hepatic damage (plasma transaminase activities GOT, GPT). It counts as in vivo. The note with it: male BALB/c mice; for Inhibition rate (%) i.p. GOT / Inhibition rate (%) p.o. GOT: plasma GOT 24 hours after con A; for Inhibition rate (%) i.p. GPT / Inhibition rate (%) p.o. GPT: plasma GPT 24 hours after con A. Here is the method: The hepatic damage inhibitory effect of the adenosine A2 receptor agonist of the invention can be verified by a test using mice as described below. Among the various animal models proposed for the evaluation of hepatic damage inhibitory activity, the disease model used in this test resembles human hepatitis in the mechanism of onset. Using 6-weeks old male BALB/c mice in groups of 17-20, the test drug was administered intraperitoneally or orally. At 30 minutes after intraperitoneal administration of the test drug or 1 hour after oral administration, 0.6 mg of concanavalin A (con A) was administered intravenously to each animal to induce hepatic damage. At 24 hours after administration of con A, plasma transaminase activities [GOT (glutamic-oxaloacetic transaminase), GPT (glutamic-pyruvic transaminase)] were determined. The plasma transaminase activity inhibition rate in each group given a test drug relative to the control group was calculated by means of the following equation. Inhibition rate (%) = [(C-D)/C] × 100 [formula] where C represents the mean value of plasma transaminase activity in the control group and D represents the mean value of plasma transaminase activity in the group given a test drug.

For another data set, the system named is ICR mice. The note with it: 1000 mg/kg orally, 7-8 weeks old; cited from earlier work.
Where [2] appears, read: 0.3 mg/kg i.p. 30 minutes before con A.
Where [3] appears, read: 3 mg/kg i.p. 30 minutes before con A.
The mark [4] stands for this setting: 3 mg/kg p.o. 1 hour before con A.
The mark [5] stands for this setting: 1 mg/kg i.p. 30 minutes before con A.
The mark [6] stands for this setting: 1 mg/kg p.o. 1 hour before con A.

Molecules are shown by their SMILES. Marks after values point to notes of the source that are not given here.

Consider `CCNC(=O)[C@H]1O[C@@H](n2cnc3c(N)nc(NCCc4ccc(CCC(=O)O)cc4)nc32)[C@H](O)[C@@H]1O` [Compound 1, 1-[6-amino-2-[(2-(4-(2-carboxyethyl)phenyl)-ethyl)amino]-9H-purin-9-yl]-1-deoxy-N-ethyl-β-D-ribofuranuronamide], for which, in data set [1] (setting [2]), the “Inhibition rate (%) i.p. GOT” value is on record as 85** % and the “Inhibition rate (%) i.p. GPT” value was 88** %. For the same molecule, in data set [1] (setting [3]), the “Inhibition rate (%) i.p. GOT” value is 93** % and the “Inhibition rate (%) i.p. GPT” value is given as 98** %. In addition, in data set [1] (setting [4]), the “Inhibition rate (%) p.o. GOT” value is 64* % and the “Inhibition rate (%) p.o. GPT” value is 58* %.
As to `Nc1nc(Nc2ccccc2)nc2c1ncn2[C@@H]1O[C@H](CO)[C@@H](O)[C@H]1O` [Compound 2, 2-(phenylamino)adenosine], the “Inhibition rate (%) i.p. GOT” value in data set [1] (setting [2]) was 61** %; in data set [1] (setting [5]) it was 81** %. The “Inhibition rate (%) i.p. GPT” value in data set [1] (setting [2]) is on record as 65** %; in data set [1] (setting [5]) it was 91** %.
For the molecule `COc1cc(OC)cc(C(CNc2ncnc3c2ncn3[C@@H]2O[C@H](CO)[C@@H](O)[C@H]2O)c2ccccc2C)c1` (stereo partly shown) [Compound 3, N^6-[2-(3,5-dimethoxyphenyl)-2-(2-methylphenyl)ethyl]adenosine], in data set [1] (setting [2]), the “Inhibition rate (%) i.p. GOT” value was 61** % and the “Inhibition rate (%) i.p. GPT” value is 60** %. In data set [1] (setting [3]), the “Inhibition rate (%) i.p. GOT” value is given as 83** % and the “Inhibition rate (%) i.p. GPT” value is recorded as 87** %. Besides, in data set [1] (setting [4]), the “Inhibition rate (%) p.o. GOT” value is recorded as 86** % and the “Inhibition rate (%) p.o. GPT” value was 88** %.
For the molecule `Nc1ncnc2c1ncn2[C@@H]1O[C@H](C(=O)NC2CC2)[C@@H](O)[C@H]1O` [Compound 4, 1-(6-amino-9H-purin-9-yl)-1-deoxy-N-cyclopropyl-β-D-ribofuranuronamide], in data set [1] (setting [6]), the “Inhibition rate (%) p.o. GOT” value is reported as 49** % and the “Inhibition rate (%) p.o. GPT” value is recorded as 56** %.
In the case of `CCCCCCC#Cc1nc(N)c2ncn([C@@H]3O[C@H](CO)[C@@H](O)[C@H]3O)c2n1` [Compound 5, 2-(1-octyn-1-yl)adenosine], in data set [1] (setting [2]), the “Inhibition rate (%) i.p. GOT” value is reported as 90** % and the “Inhibition rate (%) i.p. GPT” value is reported as 96** %. Further, in data set [1] (setting [3]), the “Inhibition rate (%) i.p. GOT” value is listed as 91** % and the “Inhibition rate (%) i.p. GPT” value is reported as 96** %. In addition, in data set [1] (setting [4]), the “Inhibition rate (%) p.o. GOT” value was 93** % and the “Inhibition rate (%) p.o. GPT” value is reported as 97** %. In addition, in the data set with ICR mice, the death result is on record as “no death was encountered”.
